Reference: EP2844225B1, “AVERMECTIN POUR-ON FORMULATION WITH REDUCED WITHDRAWAL TIME” (Norbrook Laboratories Limited, priority 2012, dated 2013)
Values joined by “and” are separate entries in the source; they are usually repeats but may differ in a detail not shown here. Identical values can stand only once.

Test: Plasma levels of eprinomectin in cattle after topical pour-on administration (HPLC with fluorescence detection)
Conditions: for Plasma concentration of eprinomectin: 0.5 mg/kg bodyweight, individual animals
Experimental: Twenty beef cattle of mixed gender and aged approximately between 10-20 months at the time of selection were used to determine the levels of eprinomectin in plasma following topical administration of the composition set forth in Table 1 below at a dose rate of 0.5mg/kg of eprinomectin.
The composition was administered along the midline of the back in a narrow strip between the withers and the tailhead using 60 ml syringes graduated to 1 ml. […] Blood samples were collected from each animal by venipuncture from the jugular vein using suitably labelled 9ml heparinised vacutainers. Following collection, samples were placed on ice protected from light under black cover prior to centrifugation. After centrifugation at 4500 revolutions per minute (RPM) for 5 minutes, the plasma was subsampled into 3 amber cryovials (-1ml plasma/cryovial). Plasma samples were stored at <-20°C until assayed. All samples were assayed for the determination of eprinomectin content, measured as eprinomectin B 1 a (hereafter referred to as eprinomectin) by HPLC.

[1] = bovine, in vivo, topical or ocular, 0.5 mg/kg

AUC [1]: 7840 ± 2700 ng·h/mL | Cmax [1]: 45.5 ± 18.4 ng/mL | Tmax [1]: 96 h | concentration at 24 h (bovine, in vivo, topical or ocular, 0.5 mg/kg, mean plasma concentrations ± SD, cattle, topical, 24 hours, mean of all animals): 14.3 ± 5.09 ng/mL | concentration at 240 h (bovine, in vivo, topical or ocular, 0.5 mg/kg, mean plasma concentrations, cattle, topical, 240 hours post administration, mean ± SD): 15 ± 6.69 ng/mL | concentration at 408 h (bovine, in vivo, topical or ocular, 0.5 mg/kg, mean plasma concentrations, cattle, topical, 408 hours, mean ± SD): 2.9 ± 1.15 ng/mL | Plasma concentration of eprinomectin (cattle, topical, time point 0 hrs (pre-treatment)): <1.00 ng/mL
SMILES: CC[C@H](C)[C@H]1O[C@]2(C=C[C@@H]1C)C[C@@H]1C[C@@H](C/C=C(\C)[C@@H](O[C@H]3C[C@H](OC)[C@@H](O[C@H]4C[C@H](OC)[C@H](NC(C)=O)[C@H](C)O4)[C@H](C)O3)[C@@H](C)/C=C/C=C3\CO[C@@H]4[C@H](O)C(C)=C[C@@H](C(=O)O1)[C@]34O)O2 [eprinomectin]
Plasma concentration of eprinomectin (cattle, topical, time point 24 hrs, 0.5 mg/kg, 1440 min): 17.6 ng/mL and 16.9 ng/mL and 20.2 ng/mL and 10.2 ng/mL and 14.6 ng/mL and 6.61 ng/mL and 5.98 ng/mL | Plasma concentration of eprinomectin (cattle, topical, time point 48 hrs, 0.5 mg/kg, 2880 min): 24.7 ng/mL and 36.7 ng/mL and 27.7 ng/mL and 23.5 ng/mL and 26.7 ng/mL and 12.7 ng/mL and 8.29 ng/mL | Plasma concentration of eprinomectin (cattle, topical, time point 72 hrs, 0.5 mg/kg, 4320 min): 30.3 ng/mL and 49.8 ng/mL and 30.1 ng/mL and 39.1 ng/mL and 36.9 ng/mL and 17.4 ng/mL and 13.5 ng/mL | Plasma concentration of eprinomectin (cattle, topical, time point 96 hrs, 0.5 mg/kg, 5760 min): 32.2 ng/mL and 56.9 ng/mL and 36.1 ng/mL and 38.5 ng/mL and 45.3 ng/mL and 19.9 ng/mL | Plasma concentration of eprinomectin (cattle, topical, time point 120 hrs, 0.5 mg/kg, 7200 min): 24.8 ng/mL and 76.5 ng/mL and 27.0 ng/mL and 33.8 ng/mL and 44.7 ng/mL and 25.2 ng/mL | Plasma concentration of eprinomectin (cattle, topical, time point 144 hrs, 0.5 mg/kg, 8640 min): 20.5 ng/mL and 71.7 ng/mL and 24.5 ng/mL and 40.6 ng/mL and 44.7 ng/mL and 28.3 ng/mL | Plasma concentration of eprinomectin (cattle, topical, time point 192 hrs, 0.5 mg/kg, 11520 min): 10.8 ng/mL and 44.1 ng/mL and 15.8 ng/mL and 31.1 ng/mL and 38.1 ng/mL and 21.6 ng/mL | Plasma concentration of eprinomectin (cattle, topical, time point 216 hrs, 0.5 mg/kg, 12960 min): 9.41 ng/mL and 31.1 ng/mL and 13.4 ng/mL and 31.7 ng/mL and 31.2 ng/mL and 16.8 ng/mL and 14.4 ng/mL | Plasma concentration of eprinomectin (cattle, topical, time point 240 hrs, 0.5 mg/kg, 14400 min): 7.12 ng/mL and 21.7 ng/mL and 10.3 ng/mL and 29.2 ng/mL and 24.3 ng/mL and 13.3 ng/mL and 11.2 ng/mL | Plasma concentration of eprinomectin (cattle, topical, time point 312 hrs, 0.5 mg/kg, 18720 min): 4.14 ng/mL and 10.7 ng/mL and 4.53 ng/mL and 14.5 ng/mL and 10.3 ng/mL and 8.49 ng/mL and 3.76 ng/mL | Plasma concentration of eprinomectin (cattle, topical, time point 336 hrs, 0.5 mg/kg, 20160 min): 2.67 ng/mL and 6.98 ng/mL and 3.27 ng/mL and 10.8 ng/mL and 8.74 ng/mL and 7.94 ng/mL and 3.94 ng/mL | Plasma concentration of eprinomectin (cattle, topical, time point 360 hrs, 0.5 mg/kg, 21600 min): 1.90 ng/mL and 5.46 ng/mL and 2.21 ng/mL and 8.23 ng/mL and 7.19 ng/mL and 5.54 ng/mL and 3.37 ng/mL | Plasma concentration of eprinomectin (cattle, topical, time point 408 hrs, 0.5 mg/kg, 24480 min): 1.45 ng/mL and 2.79 ng/mL and 1.28 ng/mL and 4.89 ng/mL and 4.57 ng/mL and 4.06 ng/mL and 2.13 ng/mL
